Assay results: US20110236316A1, “PEPTIDE TARGETING IMAGING AGENTS AND METHODS OF USE THEREOF” (University of Utah Research Foundation, priority 2008, published 2011)

Columns and labels:
[1] = tested on: HT-29 human colon carcinoma xenografts; assay: In vivo MR molecular imaging in HT-29 xenografts; design: species or system mice; settings: 0.1 mmol/kg iv
Experimental: In vivo molecular imaging of fibrin-fibronectin complexes in tumor with the targeted contrast agent and MRI was evaluated in female athymic nu/nu mice bearing HT-29 human colon carcinoma xenografts with a T1-weighted 2D spin-echo sequence. A clinical contrast agent, Gd(DTPA-BMA), was used as a control. Competitive targeting of free CLT1 peptide to CLT1-(Gd-DTPA) was also studied with coinjection of CLT1-(Gd-DTPA) and a 3-fold excess of free CLT1 peptide. A group of 3 mice were used for each contrast agent. The mice were anesthetized by intramuscular administration of a mixture of ketamine (45 mg/kg) and xylazine (6 mg/kg) for MRI. The CLT1-(Gd-DTPA) and Gd(DTPA-BMA) was intravenously injected at a dose of 0.1 mmol/kg. Contrast enhanced MR images were acquired before and after injection at 1, 10, 20, 30 and 60 minutes on a Siemens Trio 3T scanner using a human wrist coil. High resolution 3D images were acquired with a 3D FLASH sequence with 25° flip angel, TR/TE=7.8/2.7 ms, slice thickness 0.5 mm, field of view (FOV) 120 mm, voxel size 0.5×0.5×0.5 mm T1-weighted 2D axial tumor images were acquired with a 2D spin echo sequence with TR 400 ms, TE 10 ms, 90° tip angel and FOV 50 mm Mice were sacrificed 24 hours post-injection and tumor tissues were cut and fixed with 3% paraformaldehyde and embedded in paraffin. Tissue sections (4-μm thickness) were incubated in 3% H2O2 for 10 minutes to block endogenous peroxidase activity and boiled in antigen retrieval solution for 15 minutes in microwave. The sections were then incubated with primary antibody overnight and secondary antibody the second day for visualization using the ABC kit (Santa Cruz Biotechnology).
MR signal intensity was also measured and the contrast to noise ratio (CNR) in the tumor tissues was calculated as CNR=(SItissue−SImuscle)/SDnoise.

[2] = tested on: MDA-MB-231 human breast carcinoma xenografts; assay: In vivo MR molecular imaging in MDA-MB-231 xenografts; design: species or system mice
[3] = up to 60 minutes post-injection

CNC(=O)CN(CCN(CCN(CC(=O)[O-])CC(=O)NC)CC(=O)[O-])CC(=O)[O-].[Gd+3] [Gd(DTPA-BMA)]
tumor enhancement compared with CLT1-(Gd-DTPA) [1]: didn't show a strong tumor enhancement
CNR time course, tumor inner area [1, 3]: decreased rapidly
CNR time course, tumor periphery [1, 3]: decreased rapidly
tumor enhancement (T1-weighted 2D spin-echo MRI) ([2]; after 30 minutes post-injection, 0.1 mmol/kg): decreased significantly
tumor enhancement (T1-weighted 2D spin-echo MRI) ([2]; first 15 minutes post-injection, CLT1-(Gd-DTPA) 0.05 mmol/kg, Gd(DTPA-BMA) 0.1 mmol/kg): Significant tumor enhancement
